Measured values published in ChEMBL document CHEMBL1131844, “Substituted indoles as potent and orally active 5-lipoxygenase activating protein (FLAP) inhibitors” (Bioorg Med Chem Lett, 1999).

How the values were obtained:
[1] = Plasma level at 2 hr after administration of the compound; assay type: ADME, organism-based; conditions: rat
[2] = Bioavailability in rat; assay type: ADME, organism-based; conditions: in vivo
Canis familiaris [3] = assay: Inhibition of ex vivo urinary leukotriene E4 (LTE4) excretion from A-23,187-challenged dog after intravenous infusion of 2.5 ug/kg/min; assay type: functional; conditions: Canis lupus familiaris, Urine
Canis familiaris [4] = assay: Inhibition of ex vivo leukotriene B4 (LTB4) in whole blood of A-23,187-challenged dog after intravenous infusion of 2.5 ug/kg/min; assay type: functional; conditions: Canis lupus familiaris
Rattus norvegicus [5] = assay: In vivo inhibitory activity against LTB4 biosynthesis by rat pleurisy model (2h pre treatment time period); assay type: functional
Homo sapiens [6] = species: Homo sapiens; assay: In vitro inhibition of LTB4 biosynthesis in Ca++ ionophore activated human polymorphonuclear (HPMN) leukocytes.; assay type: functional
Rattus norvegicus [7] = assay: In vivo inhibitory activity against LTB4 biosynthesis by rat pleurisy model (6 pre treatment time periods); assay type: functional
Rattus norvegicus [8] = assay: Compound was evaluated in vivo for its functional activity(in percent) in a hyperreactive rat model of dyspnea; set-up: concentration or dose not given beside the values
[9] = target: T1, Arachidonate 5-lipoxygenase-activating protein (Homo sapiens, UniProt P20292); assay: Measuring the affinity of leukotriene synthesis inhibitor for 5-lipoxygenase activating protein by using [125I]L-691831 as radioligand.
T1 sequence (P20292 whole entry): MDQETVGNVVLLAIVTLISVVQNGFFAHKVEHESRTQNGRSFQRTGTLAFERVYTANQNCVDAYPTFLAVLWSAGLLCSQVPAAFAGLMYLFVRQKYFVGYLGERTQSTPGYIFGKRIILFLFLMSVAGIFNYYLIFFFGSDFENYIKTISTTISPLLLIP

Homo sapiens [10] = species: Homo sapiens; assay: The drug dependent inhibition of LTB4 biosynthesis in human whole blood (HWB) activated with the ionophore A-23187; assay type: functional, organism-based
[11] = plasma level at 2 hr after administration of the compound; assay type: ADME, organism-based; conditions: rat
Rattus norvegicus [12] = assay: In vivo inhibitory activity against LTB4 biosynthesis by rat pleurisy model (3h pre treatment time periods); assay type: functional
Rattus norvegicus [13] = assay: In vivo inhibitory activity against LTB4 biosynthesis by rat pleurisy model (6h pre treatment time periods); assay type: functional
Rattus norvegicus [14] = assay: In vivo inhibitory activity against LTB4 biosynthesis by rat pleurisy model (v3h pre treatment time periods); assay type: functional
Rattus norvegicus [15] = assay: In vivo inhibitory activity against LTB4 biosynthesis by rat pleurisy model (1 pre treatment time periods); assay type: functional
Rattus norvegicus [16] = assay: In vivo inhibitory activity against LTB4 biosynthesis by rat pleurisy model (3 pre treatment time periods); assay type: functional
[17] = target: T1, Arachidonate 5-lipoxygenase-activating protein; assay: Measuring the affinity of leukotriene synthesis inhibitor for 5-Lipoxygenase activating protein (FLAP) by using [125I]L-691831 as radioligand.

Row | Structure (SMILES) | IC50 (Homo sapiens [6]; Homo sapiens) | IC50 [9] | IC50 (Homo sapiens [10]; Homo sapiens, Blood) | other results
1 | CC(C)(C)Sc1c(CC(C)(C)C(=O)O)n(Cc2ccc(Cl)cc2)c2ccc(OCc3ccc4c(n3)CCCC4)cc12 | 3 nM | 8 nM | 2890 nM | –
2 | CC(COc1ccc2c(c1)c(SC(C)(C)C)c(CC(C)(C)C(=O)O)n2Cc1ccc(Cl)cc1)c1ccccn1 (stereo unspecified) | 4 nM | 8 nM | 270 nM | –
3 | CC(C)(C)Sc1c(CC(C)(C)C(=O)O)n(Cc2ccc(Cl)cc2)c2ccc(/C=C/c3ccc4ccccc4n3)cc12 | 12 nM | 11 nM | > 3000 nM | –
4 | CC(C)(C)Sc1c(CC(C)(C)C(=O)O)n(Cc2ccc(Cl)cc2)c2ccc(OCc3cc4ccccc4cn3)cc12 | 3 nM | 10 nM | > 3000 nM | –
5 | CC(C)(C)Sc1c(CC(C)(C)C(=O)O)n(Cc2ccc(Cl)cc2)c2ccc(OCc3nc4cc(C(F)(F)F)ccc4s3)cc12 | 22 nM | 186 nM | > 3000 nM | –
6 | CC(C)(C)Sc1c(CC(C)(C)C(=O)O)n(Cc2ccc(Cl)cc2)c2ccc(OCc3ccncc3)cc12 | 6 nM | 48 nM | > 3000 nM | –
7 | CC(C)(C)Sc1c(CC(C)(C)C(=O)O)n(Cc2ccc(Cl)cc2)c2cc(OCc3ccc4ccccc4n3)ccc12 | – | 428 nM | – | –
8 | C[C@H](COc1ccc2c(c1)c(SC(C)(C)C)c(CC(C)(C)C(=O)O)n2Cc1ccc(Cl)cc1)c1ccccn1 | 3 nM | 12 nM | 470 nM | –
9 | Cc1nc2ccc(COc3ccc4c(c3)c(SC(C)(C)C)c(CC(C)(C)C(=O)O)n4Cc3ccc(Cl)cc3)cc2s1 | 6 nM | 40 nM | > 3000 nM | –
10 | CC(Oc1ccc2c(c1)c(SC(C)(C)C)c(CC(C)(C)C(=O)O)n2Cc1ccc(Cl)cc1)c1ccc2ccccc2n1 (single isomer, unassigned; (-)) | – | 7 nM | – | concentration at 2 h [11]: 4.2 µM; bioavailability [2]: 48%; IC50 (Homo sapiens [10]): 362 nM; ED50 (Rattus norvegicus [15]): 1 mg/kg; IC50 (Homo sapiens [6]): 5 nM; Functional activity in dyspnea model (Rattus norvegicus [8]): 45%
11 | CC(C)(C)Sc1c(CC(C)(C)C(=O)O)n(Cc2ccc(Cl)cc2)c2c(OCc3ccc4ccccc4n3)cccc12 | – | 1950 nM | – | –
12 | Cc1nc(COc2ccc3c(c2)c(SC(C)(C)C)c(CC(C)(C)C(=O)O)n3Cc2ccc(Cl)cc2)cs1 | 2 nM | 3 nM | 130 nM | concentration at 2 h [11]: 8 µM; bioavailability [2]: 98%; ED50 (Rattus norvegicus [12]): 0.15 mg/kg; Functional activity in dyspnea model (Rattus norvegicus [8]): 48%
13 | CC(C)(C)Sc1c(CC(C)(C)C(=O)O)n(Cc2ccc(Cl)cc2)c2ccc(OCc3cnc4ccccc4c3)cc12 | – | 48 nM | – | –
14 | CC(C)(C)Sc1c(CC(C)(C)C(=O)O)n(Cc2ccc(Cl)cc2)c2ccc(OCc3ccc4cc(F)c(F)cc4n3)cc12 | 7 nM | 14 nM | > 3000 nM | –
15 | CC(C)(C)Sc1c(CC(C)(C)C(=O)O)n(Cc2ccc(Cl)cc2)c2ccc(COCc3ccc4ccccc4n3)cc12 | > 18 nM | 26 nM | > 3000 nM | –
16 | CC(C)(C)Sc1c(CC(C)(C)C(=O)O)n(Cc2ccc(Cl)cc2)c2ccc(OCc3nc4ccccc4s3)cc12 | 3 nM | 2 nM | 260 nM | concentration at 2 h [11]: 6 µM; bioavailability [2]: 81%; ED50 (Rattus norvegicus [16]): 0.85 mg/kg; Functional activity in dyspnea model (Rattus norvegicus [8]): 45%
17 | CC(C)(C)Sc1c(CC(C)(C)C(=O)O)n(Cc2ccc(Cl)cc2)c2ccc(OCc3cnccn3)cc12 | 4 nM | 7 nM | 400 nM | –
18 | CC(C)(C)Sc1c(CC(C)(C)C(=O)O)n(Cc2ccc(Cl)cc2)c2ccc(OCc3ccc4cc(F)ccc4n3)cc12 | 2 nM | 2 nM | 880 nM | –
19 | CC(C)(C)Sc1c(CC(C)(C)C(=O)O)n(Cc2ccc(Cl)cc2)c2ccc(OCc3cccc(Cl)n3)cc12 | 3 nM | 8 nM | 410 nM | concentration at 2 h [11]: 3.5 µM; bioavailability [2]: 37%; Functional activity in dyspnea model (Rattus norvegicus [8]): 34%
20 | CC(C)(C)Sc1c(CC(C)(C)C(=O)O)n(Cc2ccc(Cl)cc2)c2ccc(OCc3cccnc3)cc12 | 8 nM | 59 nM | > 3000 nM | –
21 | CC(C)(C)Sc1c(CC(C)(C)C(=O)O)n(Cc2ccc(Cl)cc2)c2ccc(OCc3ccc4cccnc4n3)cc12 | 6 nM | 2 nM | > 3000 nM | –
22 | COc1ccc2nc(COc3ccc4c(c3)c(SC(C)(C)C)c(CC(C)(C)C(=O)O)n4Cc3ccc(Cl)cc3)sc2c1 | 8 nM | 73 nM | 670 nM | –

Second part, led by results:

Row | IC50 (Homo sapiens [6]; Homo sapiens) | IC50 [9] | IC50 (Homo sapiens [10]; Homo sapiens, Blood) | Structure (SMILES) | other results
23 | 4 nM | – | – | CC(C)(C)Sc1c(CC(C)(C)C(=O)O)n(Cc2ccc(Cl)cc2)c2ccc(OCc3ccc4ccccc4n3)cc12 [QUIFLAPON] | concentration at 2 h [1]: 2500 nM; bioavailability [2]: 24%; inhibition in vivo at 2.5 µg/kg/min (Canis familiaris [3]): 71%; inhibition in vivo at 2.5 µg/kg/min (Canis familiaris [4]): 94%; ED50 (Rattus norvegicus [5]): 0.51 mg/kg; ED50 (Rattus norvegicus [7]): 0.15 mg/kg; Functional activity in dyspnea model (Rattus norvegicus [8]): 51%
24 | 4 nM | 16 nM | > 3000 nM | CC(C)(C)Sc1c(CC(C)(C)C(=O)O)n(Cc2ccc(Cl)cc2)c2ccc(CCc3ccc4ccccc4n3)cc12 | –
25 | – | 62 nM | – | CC(C)(C)Sc1c(CC(C)(C)C(=O)O)n(Cc2ccc(Cl)cc2)c2ccc(OCc3ccnc4ccccc34)cc12 | –
26 | 3 nM | 2 nM | 980 nM | CC(C)(C)Sc1c(CC(C)(C)C(=O)O)n(Cc2ccc(Cl)cc2)c2ccc(OCc3ccc4cnccc4n3)cc12 | –
27 | – | 116 nM | – | CC(Oc1ccc2c(c1)c(SC(C)(C)C)c(CC(C)(C)C(=O)O)n2Cc1ccc(Cl)cc1)c1ccc2ccccc2n1 (stereo in doubt; 6) | IC50 (Homo sapiens [10]): > 3000 nM; IC50 (Homo sapiens [6]): 32 nM
28 | 2 nM | 3 nM | 130 nM | CC(C)(C)Sc1c(CC(C)(C)C(=O)O)n(Cc2ccc(Cl)cc2)c2ccc(OCc3ccccn3)cc12 | concentration at 2 h [11]: 9 µM; bioavailability [2]: 48%; ED50 (Rattus norvegicus [12]): 0.3 mg/kg; ED50 (Rattus norvegicus [13]): 0.09 mg/kg; Functional activity in dyspnea model (Rattus norvegicus [8]): 77%
29 | – | 16 nM | – | CC(Oc1ccc2c(c1)c(SC(C)(C)C)c(CC(C)(C)C(=O)O)n2Cc1ccc(Cl)cc1)c1ccc2ccccc2n1 (racemic) | IC50 (Homo sapiens [10]): 803 nM; IC50 (Homo sapiens [6]): 9 nM
30 | 3 nM | 13 nM | > 3000 nM | CC(C)c1csc(COc2ccc3c(c2)c(SC(C)(C)C)c(CC(C)(C)C(=O)O)n3Cc2ccc(Cl)cc2)n1 | –
31 | 4 nM | 70 nM | > 3000 nM | CC(C)(C)Sc1c(CC(C)(C)C(=O)O)n(Cc2ccc(Cl)cc2)c2ccc(OCc3cccs3)cc12 | –
32 | > 52 nM | 350 nM | > 3000 nM | CCCC(Oc1ccc2c(c1)c(SC(C)(C)C)c(CC(C)(C)C(=O)O)n2Cc1ccc(Cl)cc1)c1ccc2ccccc2n1 (stereo unspecified) | –
33 | 3 nM | 5 nM | 270 nM | CC(C)(C)Sc1c(CC(C)(C)C(=O)O)n(Cc2ccc(Cl)cc2)c2ccc(OCc3cscn3)cc12 | concentration at 2 h [11]: 8 µM; bioavailability [2]: 98%; ED50 (Rattus norvegicus [14]): 0.12 mg/kg; Functional activity in dyspnea model (Rattus norvegicus [8]): 61%
34 | 2 nM | – | 280 nM | C[C@@H](COc1ccc2c(c1)c(SC(C)(C)C)c(CC(C)(C)C(=O)O)n2Cc1ccc(Cl)cc1)c1ccccn1 | concentration at 2 h [11]: 13 µM; bioavailability [2]: 60%; ED50 (Rattus norvegicus [12]): 0.16 mg/kg; IC50 [17]: 6 nM; Functional activity in dyspnea model (Rattus norvegicus [8]): 64%
35 | – | 85 nM | – | CC(C)(C)Sc1c(CC(C)(C)C(=O)O)n(Cc2ccc(Cl)cc2)c2cccc(OCc3ccc4ccccc4n3)c12 | –
36 | < 7 nM | 5 nM | 2500 nM | CC(C)(C)Sc1c(CC(C)(C)C(=O)O)n(Cc2ccc(Cl)cc2)c2ccc(OCc3nc4ccccc4o3)cc12 | –
